Reference: US7371536B2, “Methods for transporting vitamin C” (priority 1999, dated 2008)

Experiments:
rat SVCT2 = target: T1, rat SVCT2 (Rattus norvegicus, UniProt Q9WTW8); test: Two-microelectrode voltage-clamp of Xenopus oocytes expressing rat SVCT2; assay type: cell-based; conditions: oocytes expressing SVCT2, in the presence of Na^+
T1 construct: expressed in transfected cells; host or cells: Xenopus laevis oocytes injected with cRNA (vector pTLN2)
Procedure: Rat SVCT1 and SVCT2 clones were obtained by isolating SVCT1 cDNA from rat kidney by expression cloning as described in Hediger et al., Methods Enzymol. 296:17-52 (1998). The SVCT2 cDNA was subsequently isolated by PCR-based homology screening of a rat brain cDNA library. A 2.5-kb rabbit cDNA with 96% identity to residues 96-505 of the rat SVCT2 was obtained by RT-PCR. Radiotracer and voltage-clamp experiments were performed (at 22° C.) in Xenopus oocytes two to seven days after injection with ˜25 ng of SVCT1 or SVCT2 cRNA synthesized in vitro. Radiotracer uptake was determined by incubating 6-10 oocytes for 30 or 60 min in standard 100 mM Na^+ or Na^+-free media with 10-600 μM L-[^14C]ascorbic acid. […]
Radiotracer uptake was determined by incubating 6-10 oocytes for 30 or 60 min in standard Na^+ or Na^+-free media (at 22° C.) with 10-600 μM L-[1-^14C]ascorbic acid (final specific activity 0.3 GBq/mmol). Oocytes were solubilized with 10% SDS and [^14C]-content was measured by liquid scintillation counting. […] Steady-state data (obtained by averaging the points over the final 16.7 ms at each Vm step when step-changes were applied) were fitted to equation (1) below, for which I is the evoked current (i.e., the difference in steady-state current measured in the presence and absence of substrate), Imax the derived current maximum, S the concentration of substrate S (Na^+ or L-ascorbic acid), […]

human SVCT2 = target: T2, human SVCT2 (Homo sapiens, UniProt Q9UGH3, A167T); test: L-[14C]ascorbic acid radiotracer uptake in Xenopus oocytes expressing human SVCT2; assay type: cell-based
T2 construct: expressed in transfected cells; host or cells: Xenopus laevis oocytes injected with cRNA (vector pTLN2)
Procedure: Functional characterization in Xenopus oocytes—SVCT1 and SVCT2 cDNAs were subcloned into the pTLN2 vector (to improve functional expression in oocytes) and used for cRNA synthesis in vitro using the MEGAscript kit and T7 RNA polymerase (from Ambion). Oocytes were isolated from Xenopus laevis, treated with collagenase A and maintained at 18° C. in modified Barths' medium. Oocytes were injected with 15 ng SVCT1 or SVCT2 cRNA or water only. The radiotracer uptake and voltage-clamp experiments described below were conducted 2-5 days post-injection in standard medium of composition 100 mM NaCl, 2 mM KCl, 1 mM CaCl2, 1 mM MgCl2, and 10 mM HEPES (buffered to pH 7.5 with Tris base). For low-Na^+ or Na^+-free media, NaCl was replaced with choline chloride. For pH-dependence experiments, Na^+ media were buffered to between pH 5.5 and pH 8.0 using 0-5 mM MES, 0-5 mM HEPES and 0-5 mM Tris base. L-Ascorbic acid-containing solutions were always freshly prepared and used immediately. Radiotracer uptake was determined by incubating 8-12 oocytes for 30 min (within the time-course of linear uptake) in standard Na^+, low-Na^+ or Na^+-free media with 10-500 μM L-[1-^14C]ascorbic acid (final specific activity ≈0.3 GBq/mmol). Oocytes were solubilized with 10% SDS and carbon-14 content measured by liquid scintillation counting. A two-microelectrode voltage-clamp was used to measure currents associated with SVCT1 expressed in oocytes. Oocytes were superfused at 22° C. in standard Na^+ medium and clamped at −50 mV. Current was continuously monitored by sampling at 1 Hz. Test solutions were always washed out with substrate-free, Na^+-free medium at pH 7.5 for several minutes. Once again, saturation kinetics data were fit to a modified Hill equation in which I and Imax were replaced by uptake V and maximal velocity Vmax for analysis of radiotracer uptake data.

T2 sequence (Q9UGH3 whole entry A167T): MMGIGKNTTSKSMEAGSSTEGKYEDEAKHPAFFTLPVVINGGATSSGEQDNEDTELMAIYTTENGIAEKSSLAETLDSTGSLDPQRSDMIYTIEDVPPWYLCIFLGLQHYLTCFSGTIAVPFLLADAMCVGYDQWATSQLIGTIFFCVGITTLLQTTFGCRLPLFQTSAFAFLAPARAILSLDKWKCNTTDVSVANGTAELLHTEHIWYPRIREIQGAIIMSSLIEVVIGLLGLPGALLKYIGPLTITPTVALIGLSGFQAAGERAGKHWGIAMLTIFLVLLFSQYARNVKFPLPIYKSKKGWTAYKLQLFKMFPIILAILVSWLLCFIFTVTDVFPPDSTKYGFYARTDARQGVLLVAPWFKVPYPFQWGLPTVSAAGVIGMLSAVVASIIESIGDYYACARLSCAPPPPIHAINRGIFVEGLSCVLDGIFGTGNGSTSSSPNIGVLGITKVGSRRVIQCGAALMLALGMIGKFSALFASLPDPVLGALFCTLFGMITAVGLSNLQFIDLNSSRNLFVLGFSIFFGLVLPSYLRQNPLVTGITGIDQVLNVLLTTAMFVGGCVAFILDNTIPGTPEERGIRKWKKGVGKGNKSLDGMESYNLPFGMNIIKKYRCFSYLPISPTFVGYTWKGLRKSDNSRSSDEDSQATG
T1 sequence (Q9WTW8 whole entry): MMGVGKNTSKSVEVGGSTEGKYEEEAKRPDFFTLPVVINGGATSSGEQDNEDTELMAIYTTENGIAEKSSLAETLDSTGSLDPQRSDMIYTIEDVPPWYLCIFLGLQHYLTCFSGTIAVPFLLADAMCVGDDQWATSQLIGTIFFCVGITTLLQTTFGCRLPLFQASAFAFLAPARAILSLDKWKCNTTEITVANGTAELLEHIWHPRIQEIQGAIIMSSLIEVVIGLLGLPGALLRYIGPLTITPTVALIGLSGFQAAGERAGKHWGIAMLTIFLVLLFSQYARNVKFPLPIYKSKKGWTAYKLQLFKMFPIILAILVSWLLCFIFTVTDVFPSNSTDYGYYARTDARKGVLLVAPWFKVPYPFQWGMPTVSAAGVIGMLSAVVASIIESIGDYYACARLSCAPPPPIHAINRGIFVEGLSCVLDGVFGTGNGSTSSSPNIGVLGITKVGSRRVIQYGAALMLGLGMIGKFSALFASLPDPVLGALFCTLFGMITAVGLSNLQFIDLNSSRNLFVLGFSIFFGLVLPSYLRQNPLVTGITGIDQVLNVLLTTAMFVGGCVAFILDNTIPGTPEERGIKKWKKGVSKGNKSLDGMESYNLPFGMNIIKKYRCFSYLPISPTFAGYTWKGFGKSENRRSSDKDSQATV

In the case of O=C1O[C@H]([C@@H](O)CO)C(O)=C1O [L-ascorbic acid], the “L-ascorbic acid-evoked reversible inward currents” value (rat SVCT2) was “up to −10 nA”, the “stimulation of uptake compared with control oocytes” value (human SVCT2) was 15 fold and the “uptake of L-[14C]ascorbic acid” value (human SVCT2) was 1.2±0.1 pmol/min per oocyte. For the same molecule, the “K0.5 of L-[14C]ascorbic acid transport” value (human SVCT2; radiotracer uptake, FIG. 10) was 65 µM and the “inhibition of the uptake of 100 μM L-[14C]ascorbic acid (in words)” value (human SVCT2; saturating concentration) was “inhibited”.
